From PMC9948168, “Vanillin-Based Indolin-2-one Derivative Bearing a Pyridyl Moiety as a Promising Anti-Breast Cancer Agent via Anti-Estrogenic Activity” (ACS Omega, 2023) come the findings set out here.

Assay in all cases: NCI-60 one-dose screening
Holding throughout (format): cell-based

One assay deals with A549/ATCC. The conditions noted are these: Homo sapiens, Non-Small Cell Lung Cancer, read-out: GI (%).
In a further assay the test system is BT-549. The conditions noted are these: Homo sapiens, BT-549, Breast Cancer, read-out: GI (%).
A further assay deals with CAKI-1. The conditions noted are these: Homo sapiens, CAKI-1, Renal Cancer, read-out: GI (%).
The next assay has as its system EKVX. The conditions noted are these: Homo sapiens, Non-Small Cell Lung Cancer, read-out: GI (%).
The subject of another assay is HCC-2998. To be noted: Homo sapiens, HCC-2998, Colon Cancer, read-out: GI (%).
The next assay concerns HL-60(TB). To be noted: Homo sapiens, Leukemias, read-out: GI (%).
A further assay concerns HS 578T. To be noted: Homo sapiens, Breast Cancer, read-out: GI (%).
The test system of a further assay is M14. To be noted: Homo sapiens, M14, Melanoma, read-out: GI (%).
Another assay has as its system MOLT-4. The conditions noted are these: Homo sapiens, MOLT-4, Leukemias, read-out: GI (%).
Another assay deals with NCI-H23. The conditions noted are these: Homo sapiens, NCI-H23, Non-Small Cell Lung Cancer, read-out: GI (%).
The subject of a further assay is NCI-H522. The conditions noted are these: Homo sapiens, NCI-H522, Non-Small Cell Lung Cancer, read-out: GI (%).
The test system of the next assay is NCI/ADR-RES. To be noted: Homo sapiens, Ovarian Cancer, read-out: GI (%).
A further assay deals with OVCAR-3. To be noted: Homo sapiens, OVCAR-3, 10 μM; OVCAR-3, Ovarian Cancer; read-out: GI (%).
The subject of a further assay is OVCAR-4. To be noted: Homo sapiens, OVCAR-4, 10 μM; OVCAR-4, Ovarian Cancer; read-out: GI (%).
A further assay deals with RXF 393. To be noted: Homo sapiens, RXF 393, Renal Cancer, read-out: GI (%).
For a further assay, the system named is SF-268. The conditions noted are these: Homo sapiens, SF-268, CNS Cancer, read-out: GI (%).
Another assay has as its system SF-295. The conditions noted are these: Homo sapiens, SF-295, CNS Cancer, read-out: GI (%).
For the next assay, the system named is SK-MEL-28. To be noted: Homo sapiens, SK-MEL-28, Melanoma, read-out: GI (%).
The test system of a further assay is SK-MEL-2. To be noted: Homo sapiens, SK-MEL-2, Melanoma, read-out: GI (%).
In another assay the test system is SK-MEL-5. To be noted: Homo sapiens, SK-MEL-5, Melanoma, read-out: GI (%).
A further assay relates to SNB-19. To be noted: Homo sapiens, SNB-19, CNS Cancer, read-out: GI (%).
In a further assay the test system is T-47D. The conditions noted are these: Homo sapiens, T47D, Breast Cancer, read-out: GI (%).
The test system of the next assay is UACC-62. The conditions noted are these: Homo sapiens, UACC-62, Melanoma, read-out: GI (%).
For a further assay, the system named is UO-31. To be noted: Homo sapiens, UO-31, Renal Cancer, read-out: GI (%).

Turning to `COc1cc(C=C2C(=O)Nc3ccc(Cl)cc32)ccc1OCc1ccc(Cl)cc1` (mixture of isomers) [6g], the inhibition at 10 µM in the assay on A549/ATCC was 7.48%; with BT-549 it was 4.38%; with CAKI-1, 24.2%; with EKVX, 27.5%; in the assay on HCC-2998 it was -4.18%; in the assay with HL-60(TB) it was -1.67%. The inhibition at 10 µM in the assay on HS 578T is 2.99%; in the assay on M14 it was 2.22%; in the assay on MOLT-4, 8.95%; in the assay on NCI-H23, 20.2%; in the assay with NCI-H522, 6.96%; in the assay with NCI/ADR-RES, 16.1%. Further, the inhibition at 10 µM with OVCAR-3 was 74 to 97%; in the assay on OVCAR-4, 74 to 97%; in the assay on RXF 393, 9.18%; with SF-268, 20%; in the assay with SF-295, 6.36%; with SK-MEL-28, -3.4%. For the same molecule, the inhibition at 10 µM with SK-MEL-2 was -8.12%; in the assay on SK-MEL-5, 8.56%; in the assay on SNB-19, 12.8%; in the assay on T-47D it was 10%; in the assay with UACC-62, 27%; in the assay on UO-31 it was 37.9%.

In the case of `COc1cc(C=C2C(=O)Nc3ccccc32)ccc1O` (mixture of isomers) [5a], the inhibition at 10 µM in the assay on A549/ATCC was 3.48%; in the assay on BT-549, 25.6%; in the assay with CAKI-1 it was 36%; in the assay on EKVX, 82.6%; with HCC-2998, -15%; with HL-60(TB), 15.1%. The inhibition at 10 µM was 47.9% in the assay with HS 578T; 23.5% with M14; 10.4% with MOLT-4; 16% in the assay with NCI-H23; 27.4% in the assay with NCI-H522; 8.73% with NCI/ADR-RES. Moreover, the inhibition at 10 µM with OVCAR-3 was 19.4%; with OVCAR-4 it was 18.2%; in the assay on RXF 393 it was -6.54%; with SF-268 it was 14.7%; with SF-295 it was 7.71%; with SK-MEL-28 it was 6.91%. The inhibition at 10 µM was 7.03% in the assay on SK-MEL-2; 17.3% in the assay with SK-MEL-5; 6.94% in the assay on SNB-19; 31.6% with T-47D; 34.6% with UACC-62; 47.7% with UO-31.

Regarding `COc1cc(C=C2C(=O)Nc3ccc(Cl)cc32)ccc1O` (mixture of isomers) [5b], the inhibition at 10 µM in the assay on A549/ATCC was 3.56%; with BT-549, 25%; with CAKI-1, 41%; in the assay with EKVX, 86.3%; in the assay on HCC-2998 it was -1.13%; in the assay with HL-60(TB) it was 23.1%. Moreover, the inhibition at 10 µM was found to be 80.1% in the assay on HS 578T; 18.4% with M14; 23.1% in the assay with MOLT-4; 15.6% with NCI-H23; 20.1% in the assay on NCI-H522; 9.66% in the assay with NCI/ADR-RES. The inhibition at 10 µM with OVCAR-3 was 25.8%; in the assay on OVCAR-4, 18.8%; with RXF 393, -7.81%; with SF-268, 29.1%; in the assay on SF-295, 8.92%; in the assay on SK-MEL-28, 5.35%. Moreover, the inhibition at 10 µM in the assay on SK-MEL-2 worked out at 6.25%; with SK-MEL-5, 31.5%; in the assay with SNB-19, 20.7%; with T-47D, 40.9%; in the assay with UACC-62, 87.1%; in the assay with UO-31 it was 45%.

Turning to `COc1cc(C=C2C(=O)Nc3ccccc32)ccc1OCc1ccccc1` (mixture of isomers) [6a], the inhibition at 10 µM in the assay with A549/ATCC is -9.96%; in the assay on BT-549, 1.2%; with EKVX, 8.21%; in the assay with HCC-2998 it was -19.5%; in the assay with HL-60(TB), -10.5%; in the assay on HS 578T, -7.03%. The inhibition at 10 µM in the assay on MOLT-4 was 1.73%; in the assay with NCI-H23, -2.84%; with NCI-H522, 9.6%; in the assay with NCI/ADR-RES, 1.52%; in the assay on OVCAR-3, 11%; in the assay on OVCAR-4, 3.22%. Moreover, the inhibition at 10 µM was -1% in the assay with SF-268; -1.61% in the assay on SF-295; -5.94% in the assay on SK-MEL-28; -10.6% in the assay on SK-MEL-2; -3.35% in the assay with SK-MEL-5; 0.53% in the assay on SNB-19. Besides, the inhibition at 10 µM in the assay with T-47D was -13%; with UACC-62, 7.55%; in the assay with UO-31 it was 25.3%.

For the molecule `COc1cc(C=C2C(=O)Nc3ccc(Cl)cc32)ccc1OCc1ccc(F)cc1` (mixture of isomers) [6h], the inhibition at 10 µM is 15.1% in the assay on A549/ATCC; -1.21% in the assay with BT-549; 16.7% in the assay with CAKI-1; 11.5% in the assay on EKVX; -7.02% with HCC-2998; -2.34% in the assay on HL-60(TB). For the same molecule, the inhibition at 10 µM came out at 5.91% in the assay on HS 578T; 3.61% with M14; 23.3% in the assay on MOLT-4; 18.8% in the assay on NCI-H23; 12.1% in the assay on NCI-H522; 11.7% with NCI/ADR-RES. Also, the inhibition at 10 µM in the assay with OVCAR-4 is 74 to 97%; with RXF 393, 6.55%; in the assay with SF-268, 9.84%; with SF-295 it was 2.31%; in the assay on SK-MEL-28, -3.14%; with SK-MEL-2, -7.21%. In addition, the inhibition at 10 µM stood at 10.8% in the assay with SK-MEL-5; 8.68% in the assay on SNB-19; 19.5% in the assay on T-47D; 29.8% in the assay with UACC-62; 25.7% in the assay with UO-31.

On to `COc1cc(C=C2C(=O)Nc3ccccc32)ccc1OCc1ccccn1` (mixture of isomers) [6e], for which the inhibition at 10 µM was -7.19% with A549/ATCC; -6.45% in the assay with BT-549; 22.4% in the assay on EKVX; -16.2% with HCC-2998; 13% in the assay with HL-60(TB); -1.16% in the assay with HS 578T. The inhibition at 10 µM turned out to be 12.5% in the assay on MOLT-4; 12.6% with NCI-H23; 5.36% in the assay on NCI-H522; 4.39% in the assay with NCI/ADR-RES; 0.9% in the assay on OVCAR-3; 8.74% in the assay on OVCAR-4. In addition, the inhibition at 10 µM is 6.47% with SF-268; 4.7% in the assay on SF-295; -7.83% with SK-MEL-28; -1.21% in the assay with SK-MEL-2; 11.7% in the assay with SK-MEL-5; 9.82% in the assay with SNB-19. For the same molecule, the figures for the inhibition at 10 µM in the assay with T-47D, with UACC-62 and with UO-31 were 15.8%, 11.6% and 30.7%, respectively.

Turning to `COc1cc(/C=C2/C(=O)Nc3cc(Cl)ccc32)ccc1OCc1ccccn1` [6o], the inhibition at 10 µM is -15.6% in the assay on A549/ATCC; 3.31% in the assay with BT-549; 25.3% in the assay with EKVX; -11.7% in the assay on HCC-2998; -17.3% in the assay with HL-60(TB); -1.2% in the assay on HS 578T. In addition, the inhibition at 10 µM in the assay on MOLT-4 was 3.45%; with NCI-H23, 4.55%; with NCI-H522, -1.8%; in the assay on NCI/ADR-RES, -7.14%; in the assay on OVCAR-3 it was -15.5%; in the assay with OVCAR-4 it was 3.45%. For the same molecule, the inhibition at 10 µM was -6.37% in the assay with SF-268; -1.12% with SF-295; -7.43% in the assay with SK-MEL-28; -8.06% in the assay with SK-MEL-2; 1.29% with SK-MEL-5; -1.66% in the assay on SNB-19. Further, the results for the inhibition at 10 µM in the assay with T-47D, in the assay with UACC-62 and with UO-31 were 0.18%, 6.45% and 16.6%, respectively.
